Measured values reported in US7541020B2, “Aminoalkyl glucosaminide phosphate compounds and their use as adjuvants and immunoeffectors” (priority 1997, dated 2009).
Values joined by “and” are separate entries in the source; they are usually repeats but may differ in a detail not shown here. Equal entries are not always repeated. Where two headings read alike, the source gives them in different places.

What was measured:
tetanus toxoid [1] = tested on: tetanus toxoid; parameters: species or system BFD1 (C57B1/6X DBA/2) female mice; conditions: mouse, in vivo
ovalbumin = assay: Stimulation of antiovalbumin antibody production; type: in vivo, BDF1 female mice; conditions: 50 μg AGP + 50 μg ovalbumin; second immunization day 21; bled 14 days after second injection
Protocol: BDF1 female mice (8 per group) were immunized with 0.2 ml of emulsions containing 50 μg of the AGPs +50 μg of ovalbumin. A second immunization was administered 21 days post primary. Each mouse was bled 14 days after the second injection.

[2] = Fever response in rabbits (pyrogenicity); type: in vivo; conditions: 10 ug/kg; cumulative rise ≥1.5 degree in three rabbits is considered pyrogenic
Protocol: The AGP compounds were also evaluated for their tendency to induce a fever response in rabbits. Each compound was formulated in 10% (v/v) ethanol/water solution at 100 mg/ml, then diluted with D5W to the desired concentration. The material was injected at 3 ml/kg body weight into 3 rabbits. The rise in core temperature of the rabbits was recorded.

E.G7 (OVA) cells = conditions: s.c. 25 μg OVA in AGP preparation, spleen cells 21 days later
influenza A/HK/68 [3] = assay: Second intranasal influenza vaccine experiment with aqueous AGP and MPL formulations: vaginal, tracheal wash and serum titers, protection; type: in vivo, BABL/c mice; conditions: mouse, in vivo
influenza A/HK/68 [4] = tested on: influenza A/HK/68; parameters: species or system ICR mice; conditions: mouse, in vivo
influenza A/HK/68 [5] = type: in vivo, ICR mice; conditions: mouse, in vivo
[6] = tested on: hepatitis B surface antigen (HBsAg); assay: Serum anti-HBsAg antibody titers after intranasal HBsAg + AGP-AF (ELISA); type: in vivo, BALB/c mice; conditions: for Anti HBsAg Titer^−1 IgG1 / Anti HBsAg Titer^−1 IgG2a: K = 10^3
[7] = tested on: hepatitis B surface antigen (HBsAg); assay: Vaginal wash anti-HBsAg antibody after intranasal HBsAg + AGP-AF; type: in vivo, BALB/c mice; conditions: 10 days after the booster immunization; intranasal HBsAg + 10 μg AGP-AF
Text: Vaginal samples were collected 10 days after the booster immunization and assayed for anti-HBsAg antibody.

[8] = tested on: hepatitis B surface antigen (HBsAg); conditions: for % Cytotoxicity (d16, post 2°): HBsAg + 10 μg AGP-AF intranasally; for % Cytotoxicity (d8, post 3°): intranasal HBsAg + 10 μg AGP-AF
tetanus toxoid [9] = conditions: mouse, in vivo, sc
influenza A/HK/68 [10] = conditions: mouse, in vivo
tetanus toxoid [11] = conditions: mouse, in vivo
[12] = tested on: hepatitis B surface antigen (HBsAg); assay: Anti-HBsAg antibody titer with AGP-SE (ELISA plates coated with HBsAg or p72 peptide); conditions: sera day 28 post 2°, 25 μg AGP-SE
[13] = day 22 post 2°, HBsAg + 10 μg AGP-AF intranasally
[14] = serum, day 21 post 3°, intranasal HBsAg + 10 μg AGP-AF
[15] = ELISA plates coated with p72 peptide

Q: What does the source list for `CCCCCCCCCCCCCC(=O)O[C@H](CCCCCCCCCCC)CC(=O)N[C@H]1[C@H](OCCN(CC(=O)O)C(=O)C[C@@H](CCCCCCCCCCC)OC(=O)CCCCCCCCCCCCC)O[C@H](CO)[C@@H](OP(=O)(O)O)[C@@H]1OC(=O)C[C@@H](CCCCCCCCCCC)OC(=O)CCCCCCCCCCCCC.CCN(CC)CC` [B27, N-(Carboxymethyl)-N-[(R)-3-tetradecanoyloxytetradecanoyl]-2-aminoethyl 2-Deoxy-4-O-phophono-2-[(R)-3-tetradecanoyloxytetradecanoylamino]-3-O-[(R)-3-tetradecanoyloxytetradecanoyl]-β-d-glucopyranoside Triethylammonium Salt]?
A: IgG1 T/C Ratio (tetanus toxoid [1]): 1.6; IgG1 Titer (tetanus toxoid [1]): 10,400; IgG2a T/C Ratio (tetanus toxoid [1]): 12.0; IgG2a Titer (tetanus toxoid [1]): 900; IgG2b T/C Ratio (tetanus toxoid [1]): 11.6; IgG2b Titer (tetanus toxoid [1]): 9,000; IgM T/C Ratio (tetanus toxoid [1]): 4.0; IgM Titer (tetanus toxoid [1]): 11,200; Total Ig T/C Ratio (tetanus toxoid [1]): 3.2; Total Ig Titer (tetanus toxoid [1]): 6,800; Anti-ovalbumin IgG1 T/C (ovalbumin): 0.8; Anti-ovalbumin IgG1 Titer (ovalbumin): 1275; Anti-ovalbumin IgG2a T/C (ovalbumin): 0.1; Anti-ovalbumin IgG2a Titer (ovalbumin): 38; Anti-ovalbumin IgG2b T/C (ovalbumin): 0.5; Anti-ovalbumin IgG2b Titer (ovalbumin): 113; Anti-ovalbumin IgM T/C (ovalbumin): 1.6; Anti-ovalbumin IgM Titer (ovalbumin): 300; Anti-ovalbumin Total Ig T/C (ovalbumin): 0.6; Anti-ovalbumin Total Ig Titer (ovalbumin): 138; PYROGENICITY Total Rise ° C., 3 rabbits [2]: 3.9 °C; % Cytotoxicity (E.G7 (OVA) cells; E:T 12.5:1): 5%; % Cytotoxicity (E.G7 (OVA) cells; E:T 25:1): 9%; % Cytotoxicity (E.G7 (OVA) cells; E:T 50:1): 17%

Q: For “N-[(R)-3-Hexanoyloxytetradecanoyl]-O-[2-deoxy-4-O-phosphono-2-[(R)-3-hexanoyloxytetradecanoylamino]-3-O-[(R)-3-hexanoyloxytetradecanoyl]-α-D-glucopyranosyl]-L-serine Triethylammonium Salt [B34]”, which “Mucosal IgA Response TW” value (influenza A/HK/68 [3]) is on record?
A: <4.6

Q: What about the “Mucosal IgA Response VW” value (influenza A/HK/68 [3]) of the same molecule?
A: <4.6

Q: And the “Percent Protection” value (influenza A/HK/68 [3])?
A: 0%

Q: What about the “Serum IgG Titers” value (influenza A/HK/68 [3]) of the same molecule?
A: 8.4

Q: And the “PYROGENICITY Total Rise ° C., 3 rabbits” value [2]?
A: 2.8 °C

Q: With “3-Hydroxy-(S)-2-[(R)-3-decanoyloxytetradecanoylamino]propyl 2-Deoxy-4-O-phosphono-2-[(R)-3-decanoyloxytetradecanoylamino]-3-O-[(R)-3-decanoyloxytetradecanoyl]-β-D-glucopyranoside Triethylammonium Salt [B5]” as the molecule, how does the “IgG Titer-1 post 1°” value (influenza A/HK/68 [4]) read?
A: 1600

Q: What about the “IgG Titer-1 post 2°” value (influenza A/HK/68 [4]) of the same molecule?
A: >102,400

Q: What about the “Percent Survival post 1°” value (influenza A/HK/68 [4]) of the same molecule?
A: 60%

Q: And the “Percent Survival post 2°” value (influenza A/HK/68 [4])?
A: 90%

Q: What about the “Percent Survival” value (influenza A/HK/68 [5]) of the same molecule?
A: 44%

Q: What about the “Titer−1 IgG1” value (influenza A/HK/68 [5]) of the same molecule?
A: 200

Q: What about the “Titer−1 IgG2a” value (influenza A/HK/68 [5]) of the same molecule?
A: 50

Q: What about the “Titer−1 IgG2b” value (influenza A/HK/68 [5]) of the same molecule?
A: 400

Q: What about the “Titer−1 Total IgG” value (influenza A/HK/68 [5]) of the same molecule?
A: 800

Q: And the “Anti HBsAg Titer^−1 IgA” value [6, 13]?
A: 3,200

Q: And the “Anti HBsAg Titer^−1 IgG1” value [6, 13]?
A: 256K

Q: And the “Anti HBsAg Titer^−1 IgG2a” value [6, 13]?
A: 500K

Q: And the “Anti HBsAg Titer^−1 IgG1” value [6, 14]?
A: 500K

Q: What about the “Anti HBsAg Titer^−1 IgG2a” value [6, 14] of the same molecule?
A: 1000K

Q: And the “Anti HBsAg Titer^−1 IgA” value [6, 14]?
A: 12,800

Q: What about the “Vaginal Wash Anti-HBsAg Titer^−1 IgA” value [7] of the same molecule?
A: 1600

Q: And the “Vaginal Wash Anti-HBsAg Titer^−1 IgG” value [7]?
A: 1600

Q: And the “PYROGENICITY Total Rise ° C., 3 rabbits” value [2]?
A: 4.1 °C

Q: And the “% Cytotoxicity” value (E.G7 (OVA) cells; E:T 12.5:1)?
A: 11%

Q: And the “% Cytotoxicity” value (E.G7 (OVA) cells; E:T 25:1)?
A: 18%

Q: And the “% Cytotoxicity” value (E.G7 (OVA) cells; E:T 50:1)?
A: 28%

Q: What about the “% Cytotoxicity (d16, post 2°)” value ([8]; E/T 6.25:1) of the same molecule?
A: 11%

Q: What about the “% Cytotoxicity (d8, post 3°)” value ([8]; E/T 6.25:1) of the same molecule?
A: 12%

Q: What about the “% Cytotoxicity (d16, post 2°)” value ([8]; E/T 12.5:1) of the same molecule?
A: 20%

Q: And the “% Cytotoxicity (d8, post 3°)” value ([8]; E/T 12.5:1)?
A: 19%

Q: And the “% Cytotoxicity (d16, post 2°)” value ([8]; E/T 25:1)?
A: 30%

Q: And the “% Cytotoxicity (d8, post 3°)” value ([8]; E/T 25:1)?
A: 30%

Q: What about the “% Cytotoxicity (d16, post 2°)” value ([8]; E/T 50:1) of the same molecule?
A: 43%

Q: What about the “% Cytotoxicity (d8, post 3°)” value ([8]; E/T 50:1) of the same molecule?
A: 44%

Q: Which “Anti HBsAg Titer^−1 IgA” value [6, 13] does the source give for “4-[(R)-3-Tetradecanoyloxytetradecanoylamino]butyl 2-Deoxy-4-O-phosphono-3-O-[(R)-3-tetradecanoyoxytetradecanoyl]-2-[(R)-3-tetradecanoyloxytetradecanoylamino])-β-D-glucopyranoside Triethylammonium Salt [B22]” here?
A: 1,600

Q: What about the “Anti HBsAg Titer^−1 IgG1” value [6, 13] of the same molecule?
A: 256K

Q: And the “Anti HBsAg Titer^−1 IgG2a” value [6, 13]?
A: 64K

Q: And the “Anti HBsAg Titer^−1 IgG1” value [6, 14]?
A: 500K

Q: What about the “Anti HBsAg Titer^−1 IgG2a” value [6, 14] of the same molecule?
A: 500K

Q: And the “Anti HBsAg Titer^−1 IgA” value [6, 14]?
A: 12,800

Q: What about the “Vaginal Wash Anti-HBsAg Titer^−1 IgA” value [7] of the same molecule?
A: 800

Q: And the “Vaginal Wash Anti-HBsAg Titer^−1 IgG” value [7]?
A: 100

Q: And the “Anti-tetanus toxoid IgG1 T/C” value (tetanus toxoid [9])?
A: 18.4

Q: And the “Anti-tetanus toxoid IgG1 Titer” value (tetanus toxoid [9])?
A: 27,400

Q: What about the “Anti-tetanus toxoid IgG2a T/C” value (tetanus toxoid [9]) of the same molecule?
A: 345.8

Q: And the “Anti-tetanus toxoid IgG2a Titer” value (tetanus toxoid [9])?
A: 5,187

Q: What about the “Anti-tetanus toxoid IgG2b T/C” value (tetanus toxoid [9]) of the same molecule?
A: 59.6

Q: And the “Anti-tetanus toxoid IgG2b Titer” value (tetanus toxoid [9])?
A: 3,160

Q: What about the “Anti-tetanus toxoid IgM T/C” value (tetanus toxoid [9]) of the same molecule?
A: 0.8

Q: And the “Anti-tetanus toxoid IgM Titer” value (tetanus toxoid [9])?
A: 440

Q: What about the “Anti-tetanus toxoid Total Ig T/C” value (tetanus toxoid [9]) of the same molecule?
A: 60.0

Q: What about the “Anti-tetanus toxoid Total Ig Titer” value (tetanus toxoid [9]) of the same molecule?
A: 19,050

Q: What about the “Percent Survival” value (influenza A/HK/68 [10]) of the same molecule?
A: 40%

Q: What about the “Titer−1 IgG1” value (influenza A/HK/68 [10]) of the same molecule?
A: 100

Q: What about the “Titer−1 IgG2a” value (influenza A/HK/68 [10]) of the same molecule?
A: 3200

Q: And the “Titer−1 IgG2b” value (influenza A/HK/68 [10])?
A: 200

Q: And the “Titer−1 Total IgG” value (influenza A/HK/68 [10])?
A: 3200

Q: What about the “Anti-Tetanus Toxoid Titer^−1 Fecal Extract IgG” value (tetanus toxoid [11]) of the same molecule?
A: 25 and 50

Q: What about the “Anti-Tetanus Toxoid Titer^−1 Vaginal Wash IgG” value (tetanus toxoid [11]) of the same molecule?
A: 400 and 800

Q: And the “Anti-HBsAg Titer^−1 HBsAg IgG1” value ([12]; ELISA plates coated with HBsAg)?
A: 1024K

Q: And the “Anti-HBsAg Titer^−1 HBsAg IgG2a” value ([12]; ELISA plates coated with HBsAg)?
A: 1024K

Q: And the “Anti-HBsAg Titer^−1 p72-Peptide IgG1” value [12, 15]?
A: 128K

Q: What about the “Anti-HBsAg Titer^−1 p72-Peptide IgG2a” value [12, 15] of the same molecule?
A: 128K
